In ChEMBL document CHEMBL4837257, “Discovery of the Oxadiazine FRM-024: A Potent CNS-Penetrant Gamma Secretase Modulator” (J Med Chem, 2021):

Tests used:
[1] = molecular target: Gamma-secretase (Homo sapiens) (UniProt Q96BI3+Q9NZ42+Q8WW43+P49768+Q92542+P49810); assay: (§1) Modulation of gamma-secretase in human H4 cells expressing human wild type APP751 assessed as reduction in amyloid beta42 level incubated overnight by ELISA; assay type: cell-based; details: filed as modulator
Gamma-secretase = assay: as §1; assay type: cell-based
[2] = Unbound clearance in human hepatocytes; assay type: ADME, cell-based, Hepatocyte
Mus musculus = assay: In vivo modulation of gamma secretase in mouse assessed as reduction in Abeta42 levels in brain at 30 mg/kg, po measured after 6 hrs relative to control; assay type: functional; parameters: scale not given: the % may be the effect or the level left
Rattus norvegicus [3] = assay: In vivo modulation of gamma secretase in rat assessed as reduction in Abeta42 levels in brain by measuring AUC(0 to 24 hrs) at 30 mg/kg, po by ELISA; assay type: functional; parameters: scale not given: the % may be the effect or the level left
Rattus norvegicus [4] = assay: In vivo modulation of gamma secretase in rat assessed as reduction in Abeta42 levels in CSF by measuring AUC(0 to 24 hrs) at 30 mg/kg, po by ELISA; assay type: functional, Cerebrospinal fluid; parameters: scale not given: the % may be the effect or the level left
Rattus norvegicus [5] = assay: In vivo modulation of gamma secretase in rat assessed as reduction in Abeta42 levels in CSF at 30 mg/kg, po measured at 9 hrs by ELISA relative to control; assay type: functional, Cerebrospinal fluid; parameters: scale not given: the % may be the effect or the level left
Rattus norvegicus [6] = assay: In vivo modulation of gamma secretase in rat assessed as reduction in Abeta40 levels in CSF at 30 mg/kg, po measured at 9 hrs by ELISA relative to control; assay type: functional, Cerebrospinal fluid; parameters: scale not given: the % may be the effect or the level left
[7] = In vivo modulation of gamma secretase in nonhuman primate assessed as reduction in Abeta42 levels in CSF at 30 mg/kg, po measured after 12 hrs by ELISA relative to control; assay type: functional, Primates, Cerebrospinal fluid; parameters: scale not given: the % may be the effect or the level left
[8] = AUClast in nonhuman primate at 10 mg/kg, po; assay type: ADME, organism-based; parameters: time 0 - last, route oral, dose 10 mg/kg; details: primates, in vivo
[9] = Cmax in rat at 3 mg/kg, po; assay type: ADME, organism-based; parameters: route oral, dose 3 mg/kg; details: in vivo
[10] = Cmax in dog at 10 mg/kg, po; assay type: ADME, organism-based, Canis lupus familiaris; parameters: route oral, dose 10 mg/kg; details: in vivo
[11] = Cmax in nonhuman primate at 10 mg/kg, po; assay type: ADME, organism-based; parameters: route oral, dose 10 mg/kg; details: primates, in vivo
[12] = Volume of distribution at steady state in nonhuman primate at 1 mg/kg, iv; assay type: ADME, organism-based; details: primates, in vivo, read-out: Vdss
[13] = Clearance in nonhuman primate at 1 mg/kg, iv; assay type: ADME, organism-based; details: primates, in vivo
[14] = Clearance in dog blood relative to hepatic blood flow; assay type: ADME, tissue-based, Canis lupus familiaris
[15] = Drug metabolism in rat hepatocytes assessed as mono and di-oxidative metabolites formation after 4 hrs; assay type: ADME, cell-based, Hepatocyte
[16] = Drug metabolism in dog hepatocytes assessed as mono and di-oxidative metabolites formation after 4 hrs; assay type: ADME, cell-based, Canis lupus familiaris, Hepatocyte
[17] = Drug metabolism in monkey hepatocytes assessed as mono and di-oxidative metabolites formation after 4 hrs; assay type: ADME, cell-based, Macaca mulatta, Hepatocyte; details: rhesus monkey
Cytochrome P450 3A4 = Cytochrome P450 3A4 (Homo sapiens, UniProt P08684); assay: Inhibition of CYP3A4 (unknown origin); assay type: ADME
Cytochrome P450 3A4, sequence (P08684 whole entry): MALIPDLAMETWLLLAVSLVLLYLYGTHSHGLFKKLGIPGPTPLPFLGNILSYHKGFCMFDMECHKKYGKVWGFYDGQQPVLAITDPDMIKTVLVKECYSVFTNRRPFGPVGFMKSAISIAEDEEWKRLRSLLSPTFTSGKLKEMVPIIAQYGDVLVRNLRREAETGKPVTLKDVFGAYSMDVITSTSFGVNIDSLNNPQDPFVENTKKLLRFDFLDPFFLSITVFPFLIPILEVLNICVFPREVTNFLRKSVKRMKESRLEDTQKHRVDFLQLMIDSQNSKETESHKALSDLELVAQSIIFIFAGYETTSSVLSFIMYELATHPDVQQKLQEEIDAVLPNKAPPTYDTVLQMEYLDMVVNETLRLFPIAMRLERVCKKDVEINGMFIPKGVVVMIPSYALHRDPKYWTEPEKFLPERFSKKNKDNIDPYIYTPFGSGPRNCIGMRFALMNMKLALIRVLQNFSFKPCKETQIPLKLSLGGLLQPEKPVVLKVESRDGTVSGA

Cytochrome P450 2D6 = Cytochrome P450 2D6 (Homo sapiens, UniProt P10635); assay: Inhibition of CYP2D6 (unknown origin); assay type: ADME
Cytochrome P450 2D6, sequence (P10635 whole entry): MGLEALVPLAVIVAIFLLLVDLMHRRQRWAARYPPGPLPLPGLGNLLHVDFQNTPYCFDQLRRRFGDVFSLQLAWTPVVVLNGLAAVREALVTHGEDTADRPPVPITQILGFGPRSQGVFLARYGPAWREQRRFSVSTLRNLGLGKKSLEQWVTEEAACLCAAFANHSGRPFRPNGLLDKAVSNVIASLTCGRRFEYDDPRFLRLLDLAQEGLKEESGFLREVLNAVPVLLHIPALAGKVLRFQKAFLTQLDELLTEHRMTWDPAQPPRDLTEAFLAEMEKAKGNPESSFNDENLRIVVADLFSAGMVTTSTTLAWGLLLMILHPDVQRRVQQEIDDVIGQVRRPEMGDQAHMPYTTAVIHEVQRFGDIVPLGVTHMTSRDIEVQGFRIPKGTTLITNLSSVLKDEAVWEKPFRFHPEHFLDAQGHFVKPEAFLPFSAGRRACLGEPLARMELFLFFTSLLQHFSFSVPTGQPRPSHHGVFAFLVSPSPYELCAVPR

Cytochrome P450 1A2 = molecular target: T1, Cytochrome P450 1A2 (Homo sapiens, UniProt P05177); assay: Inhibition of CYP1A2 in human hepatocytes upto 50 uM incubated for 72 hrs; assay type: ADME, cell-based, Hepatocyte
T1 sequence (P05177 whole entry): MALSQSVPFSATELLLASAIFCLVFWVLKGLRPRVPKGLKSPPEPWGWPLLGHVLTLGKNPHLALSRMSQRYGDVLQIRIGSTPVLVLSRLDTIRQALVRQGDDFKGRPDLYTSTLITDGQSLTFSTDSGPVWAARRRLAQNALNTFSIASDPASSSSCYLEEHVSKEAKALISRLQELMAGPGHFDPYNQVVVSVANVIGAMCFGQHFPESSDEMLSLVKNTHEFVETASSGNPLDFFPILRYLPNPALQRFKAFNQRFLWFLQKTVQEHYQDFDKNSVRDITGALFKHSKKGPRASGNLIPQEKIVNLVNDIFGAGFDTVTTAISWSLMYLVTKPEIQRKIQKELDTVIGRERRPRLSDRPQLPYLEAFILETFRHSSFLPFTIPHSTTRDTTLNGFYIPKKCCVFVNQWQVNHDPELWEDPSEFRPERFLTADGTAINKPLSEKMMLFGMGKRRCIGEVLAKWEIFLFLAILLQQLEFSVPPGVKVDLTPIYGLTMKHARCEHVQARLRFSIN

Cytochrome P450 2B6 = molecular target: T2, Cytochrome P450 2B6 (Homo sapiens, UniProt P20813); assay: Inhibition of CYP2B6 in human hepatocytes upto 50 uM incubated for 72 hrs; assay type: ADME, cell-based, Hepatocyte
T2 sequence (P20813 whole entry): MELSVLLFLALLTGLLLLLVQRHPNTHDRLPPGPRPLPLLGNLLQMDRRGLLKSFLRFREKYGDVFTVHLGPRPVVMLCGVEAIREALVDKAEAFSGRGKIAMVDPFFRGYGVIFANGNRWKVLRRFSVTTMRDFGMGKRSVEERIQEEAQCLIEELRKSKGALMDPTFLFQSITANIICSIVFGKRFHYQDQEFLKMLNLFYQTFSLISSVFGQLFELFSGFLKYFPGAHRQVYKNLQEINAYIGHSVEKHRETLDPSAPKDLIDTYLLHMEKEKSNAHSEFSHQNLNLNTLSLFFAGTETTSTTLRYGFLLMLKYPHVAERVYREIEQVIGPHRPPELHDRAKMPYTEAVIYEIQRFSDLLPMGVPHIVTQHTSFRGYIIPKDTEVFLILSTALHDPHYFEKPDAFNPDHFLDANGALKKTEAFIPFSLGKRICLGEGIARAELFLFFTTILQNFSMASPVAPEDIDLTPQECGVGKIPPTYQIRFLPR

[18] = molecular target: 5-hydroxytryptamine receptor 2B (Homo sapiens) (UniProt P41595); assay: Inhibition of serotonin 2B receptor (unknown origin) at 10 uM relative to control
5-hydroxytryptamine receptor 2B (Homo sapiens), sequence (P41595 whole entry): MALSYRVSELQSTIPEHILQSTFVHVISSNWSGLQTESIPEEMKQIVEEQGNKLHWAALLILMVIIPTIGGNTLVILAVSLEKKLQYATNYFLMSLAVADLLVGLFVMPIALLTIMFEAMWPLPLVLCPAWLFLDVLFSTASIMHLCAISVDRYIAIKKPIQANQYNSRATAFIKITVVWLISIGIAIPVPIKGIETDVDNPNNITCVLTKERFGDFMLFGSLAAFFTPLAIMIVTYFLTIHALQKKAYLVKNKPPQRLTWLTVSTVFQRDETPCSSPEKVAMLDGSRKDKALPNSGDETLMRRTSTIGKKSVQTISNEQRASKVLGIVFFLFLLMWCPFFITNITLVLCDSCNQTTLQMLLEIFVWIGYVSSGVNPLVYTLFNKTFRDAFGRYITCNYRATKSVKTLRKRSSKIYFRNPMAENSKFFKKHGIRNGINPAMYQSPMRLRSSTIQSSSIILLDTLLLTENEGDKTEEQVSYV

[19] = molecular target: Cannabinoid receptor 1 (Homo sapiens) (UniProt P21554); assay: Inhibition of Cannabinoid receptor 1 (unknown origin) at 10 uM relative to control
Cannabinoid receptor 1 (Homo sapiens), sequence (P21554 whole entry): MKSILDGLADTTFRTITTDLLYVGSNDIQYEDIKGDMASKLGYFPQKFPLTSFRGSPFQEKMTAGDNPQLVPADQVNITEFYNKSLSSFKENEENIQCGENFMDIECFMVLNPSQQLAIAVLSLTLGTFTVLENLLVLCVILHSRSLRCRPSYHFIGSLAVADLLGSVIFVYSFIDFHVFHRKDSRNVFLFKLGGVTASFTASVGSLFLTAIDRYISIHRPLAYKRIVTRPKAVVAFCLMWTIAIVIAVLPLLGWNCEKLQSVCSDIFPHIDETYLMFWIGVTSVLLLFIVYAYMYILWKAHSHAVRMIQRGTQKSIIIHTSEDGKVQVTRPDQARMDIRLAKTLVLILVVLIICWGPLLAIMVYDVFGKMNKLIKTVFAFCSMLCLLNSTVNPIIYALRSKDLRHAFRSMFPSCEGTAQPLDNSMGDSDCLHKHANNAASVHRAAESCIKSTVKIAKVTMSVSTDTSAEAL

[20] = molecular target: D(2) dopamine receptor (Homo sapiens) (UniProt P14416); assay: Inhibition of dopamine 2-like receptor (unknown origin) at 10 uM relative to control
D(2) dopamine receptor (Homo sapiens), sequence (P14416 whole entry): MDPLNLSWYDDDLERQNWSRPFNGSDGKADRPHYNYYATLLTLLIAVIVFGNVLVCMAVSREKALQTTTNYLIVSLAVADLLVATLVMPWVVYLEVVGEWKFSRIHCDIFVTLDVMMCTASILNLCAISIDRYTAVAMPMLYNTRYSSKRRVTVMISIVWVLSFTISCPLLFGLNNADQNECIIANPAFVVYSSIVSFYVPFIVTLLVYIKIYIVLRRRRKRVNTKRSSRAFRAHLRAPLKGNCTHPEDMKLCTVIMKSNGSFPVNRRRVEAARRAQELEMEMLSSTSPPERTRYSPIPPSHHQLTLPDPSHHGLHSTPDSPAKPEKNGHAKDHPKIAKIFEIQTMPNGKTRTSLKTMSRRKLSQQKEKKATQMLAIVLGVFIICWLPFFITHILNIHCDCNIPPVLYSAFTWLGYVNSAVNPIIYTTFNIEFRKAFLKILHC

[21] = molecular target: Vasopressin V1a receptor (Homo sapiens) (UniProt P37288); assay: Inhibition of vasopressin 1A receptor (unknown origin) at 10 uM relative to control
Vasopressin V1a receptor (Homo sapiens), sequence (P37288 whole entry, looked up): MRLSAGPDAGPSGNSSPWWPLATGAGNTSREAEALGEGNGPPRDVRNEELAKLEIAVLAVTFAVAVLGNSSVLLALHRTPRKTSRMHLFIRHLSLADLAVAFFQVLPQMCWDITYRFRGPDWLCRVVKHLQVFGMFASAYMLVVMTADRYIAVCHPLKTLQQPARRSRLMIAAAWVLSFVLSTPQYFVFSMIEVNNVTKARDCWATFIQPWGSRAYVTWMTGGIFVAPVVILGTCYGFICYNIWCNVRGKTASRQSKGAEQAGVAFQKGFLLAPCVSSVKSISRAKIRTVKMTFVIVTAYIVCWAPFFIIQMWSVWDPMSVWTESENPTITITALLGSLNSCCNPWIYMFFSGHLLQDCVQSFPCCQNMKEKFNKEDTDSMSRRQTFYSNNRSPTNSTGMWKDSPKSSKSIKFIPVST

Homo sapiens = species on record: Homo sapiens; assay: Inhibition of adenosine transporter (unknown origin) at 10 uM relative to control
[22] = molecular target: Sodium-dependent serotonin transporter (Homo sapiens) (UniProt P31645); assay: Inhibition of serotonin transporter (unknown origin) at 10 uM relative to control
Sodium-dependent serotonin transporter (Homo sapiens), sequence (P31645 whole entry, looked up): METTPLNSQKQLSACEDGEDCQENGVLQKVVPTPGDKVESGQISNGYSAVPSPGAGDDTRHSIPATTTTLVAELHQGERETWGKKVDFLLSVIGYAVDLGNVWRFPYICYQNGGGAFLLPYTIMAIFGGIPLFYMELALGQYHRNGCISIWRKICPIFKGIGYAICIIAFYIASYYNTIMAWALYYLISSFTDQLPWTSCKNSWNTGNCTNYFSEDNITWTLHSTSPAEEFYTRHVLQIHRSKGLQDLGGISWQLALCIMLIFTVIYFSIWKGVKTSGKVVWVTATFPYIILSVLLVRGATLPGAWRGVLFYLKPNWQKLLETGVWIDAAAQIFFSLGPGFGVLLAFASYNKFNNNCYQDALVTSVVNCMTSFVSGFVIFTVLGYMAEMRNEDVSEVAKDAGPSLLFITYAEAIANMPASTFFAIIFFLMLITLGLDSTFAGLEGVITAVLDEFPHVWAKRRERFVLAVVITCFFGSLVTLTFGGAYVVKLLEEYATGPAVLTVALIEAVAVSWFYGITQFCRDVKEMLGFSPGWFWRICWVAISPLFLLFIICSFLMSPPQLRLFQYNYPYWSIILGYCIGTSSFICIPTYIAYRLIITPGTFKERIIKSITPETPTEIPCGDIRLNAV

[23] = Genotoxicity in Salmonella typhimurium by mini-Ames test; assay type: toxicity; details: salmonella enterica subsp. enterica serovar typhimurium
[24] = Genotoxicity in human peripheral blood lymphocytes by micronucleus assay; assay type: cell-based; details: pbl
[25] = Toxicity in guinea pig assessed as reduction in heart flow rate by Langendorff test; assay type: tissue-based, Cavia porcellus; details: in vivo
[26] = Toxicity in guinea pig assessed as effect on sino-atrial node function in heart by Langendorff test; assay type: tissue-based, Cavia porcellus; details: in vivo
[27] = Toxicity in guinea pig assessed as effect on inotropy and lusitropy in heart by Langendorff test; assay type: tissue-based, Cavia porcellus; details: in vivo
[28] = Toxicity in guinea pig assessed as effect on ion channel function in heart by Langendorff test; assay type: tissue-based, Cavia porcellus; details: in vivo

EC90 [1]: 123 nM
EC50 (Gamma-secretase): 9 nM
CL free [2]: 4 mL/min/kg
AUC(0-t) [8]: 55.9 µM·h
Cmax [9]: 0.754 µM
Cmax [10]: 4.03 µM
Cmax [11]: 6.09 µM
Vd [12]: 1.2 L/kg
clearance [13]: 3.5 mL/min/kg
CL [14]: < 20%
Drug metabolism [15]: Metabolite_Detected
Drug metabolism [16]: Metabolite_Detected
Drug metabolism [17]: Metabolite_Detected
IC50 (Cytochrome P450 3A4): ≥ 14000 nM
IC50 (Cytochrome P450 2D6): 4500 nM
inhibition (INH) (Cytochrome P450 1A2): Not Active
inhibition (INH) (Cytochrome P450 2B6): Not Active
inhibition [18]: > 50%
inhibition [19]: > 50%
inhibition [20]: > 50%
inhibition [21]: > 50%
inhibition (Homo sapiens): > 50%
inhibition [22]: > 50%
SMILES: COc1nc(C2=NOC(C3CC3)C(c3ccc(Cl)cc3)N2)ccc1-n1cnc(C)c1 (stereo not given)
Activity (Mus musculus): 51%
Activity (Rattus norvegicus [3]): 39%
Activity (Rattus norvegicus [4]): 71%
Activity (Rattus norvegicus [5]): 91%
Activity (Rattus norvegicus [6]): 67%
Activity [7]: 92%
Activity [23]: Non-Toxic
Activity [24]: Non-Toxic
Activity [25]: Non-Toxic
Activity [26]: Non-Toxic
Activity [27]: Non-Toxic
Activity [28]: Non-Toxic
